The record followed here is patent publication US20220386602A1, “METHODS OF USING A COMPOSITION COMPRISING AN ANIONIC PESTICIDE AND A BUFFER” (BASF CORPORATION, priority 2019, published 2022).

In this data set the test system is dicamba sensitive soybean plants. Conditions: dicamba 2240 g ae/ha, AMS 917 g/ha and K2CO3 buffer 4000 g/ha where named, 0.25% v/v non-ionic surfactant (Preference), 8 glass petri plates. The source says:
The method of a bioassay humidome study utilizes a treated substrate (e.g. glass, soil, potting mix or plants) placed in a plastic tray covered with a clear plastic humidome (overall size 25 cm wide×50 cm long×20 cm tall; source: Hummert) along with 2 dicamba sensitive soybean plants (1-2 true leaves). Individual humidomes representing different study treatments and replicates are placed in a greenhouse environment (with a typical diurnal temperature range of 25 to 40 C and 75 to 98 % RH).
After 18 to 24 hours, the sensitive soybean plants are removed from the humidomes and placed on a greenhouse bench for observation and visual response or injury assessment over a 2-3 weeks period. The level of injury to soybean plants is an indirect measurement of amount of dicamba exposure from treated substrate.

Each structure is given as a SMILES string. Read-outs that look alike come from different tables or passages of the source.

Consider `CN(CCCN)CCCN.COc1c(Cl)ccc(Cl)c1C(=O)O` [Dicamba-BAPMA, dicamba N,N-bis(3-aminopropyl)methylamine salt], for which the “% bioassay soybean response” value was 9%. Also, the “% bioassay soybean response” value (listed as dicamba-BAPMA) was “lower soybean response than dicamba-DGA or dicamba-DMA”.
Consider `CNC.COc1c(Cl)ccc(Cl)c1C(=O)O` [Dicamba-DMA, dicamba dimethylamine], for which the “% bioassay soybean response” value was determined as 45%.
